Data: PubChem BioAssay AID1919000 (Molecular Pharmacology Branch, DTP, NCI, 2023)
Where “and” joins values, the source holds several entries; their conditions need not be identical. Equal entries are not always repeated.

System: 653999-131-R-J2-PDC complex spheroids, growth % test/control
Assay: Anticancer human tumor 653999-131-R-J2-PDC patient-derived lung adenocarcinoma cell line growth inhibition [AhR]
Settings: for viability, T/C: stronger effect = lower value
Outline: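 Spheroids combined tumor cells with HUVEC endothelial cells and human MSCs as stroma. AhR antagonists were paired with standard or investigational drugs, each dosed in half-log steps down from near clinical Cmax, or from 10 microM where Cmax was unknown.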

[1] = curve of first compound, second compound 0.1 µM
[2] = curve of first compound, second compound 0.316 µM
[3] = curve of first compound, second compound 1 µM
[4] = curve of first compound, second compound 3.16 µM
[5] = curve of first compound, second compound 10 µM
[6] = second compound 0.1 µM, first compound 0.0316 µM
[7] = second compound 0.1 µM, first compound 0.1 µM
[8] = second compound 0.316 µM, first compound 0.0316 µM
[9] = second compound 0.316 µM, first compound 0.1 µM
[10] = second compound 1 µM, first compound 0.0316 µM
[11] = second compound 1 µM, first compound 0.1 µM
[12] = second compound 3.16 µM, first compound 0.0316 µM
[13] = second compound 3.16 µM, first compound 0.1 µM
[14] = second compound 10 µM, first compound 0.0316 µM
[15] = second compound 10 µM, first compound 0.1 µM
[16] = second compound 0.1 µM, first compound 0.00949 µM
[17] = second compound 0.1 µM, first compound 0.03 µM
[18] = second compound 0.1 µM, first compound 0.0949 µM
[19] = second compound 0.1 µM, first compound 0.3 µM
[20] = second compound 0.1 µM, first compound 0.949 µM
[21] = second compound 0.1 µM, first compound 3 µM
[22] = second compound 0.316 µM, first compound 0.00949 µM
[23] = second compound 0.316 µM, first compound 0.03 µM
[24] = second compound 0.316 µM, first compound 0.0949 µM
[25] = second compound 0.316 µM, first compound 0.3 µM
[26] = second compound 0.316 µM, first compound 0.949 µM
[27] = second compound 0.316 µM, first compound 3 µM
[28] = second compound 1 µM, first compound 0.00949 µM
[29] = second compound 1 µM, first compound 0.03 µM
[30] = second compound 1 µM, first compound 0.0949 µM
[31] = second compound 1 µM, first compound 0.3 µM
[32] = second compound 1 µM, first compound 0.949 µM
[33] = second compound 1 µM, first compound 3 µM
[34] = second compound 3.16 µM, first compound 0.00949 µM
[35] = second compound 3.16 µM, first compound 0.03 µM
[36] = second compound 3.16 µM, first compound 0.0949 µM
[37] = second compound 3.16 µM, first compound 0.3 µM
[38] = second compound 3.16 µM, first compound 0.949 µM
[39] = second compound 3.16 µM, first compound 3 µM
[40] = second compound 10 µM, first compound 0.00949 µM
[41] = second compound 10 µM, first compound 0.03 µM
[42] = second compound 10 µM, first compound 0.0949 µM
[43] = second compound 10 µM, first compound 0.3 µM
[44] = second compound 10 µM, first compound 0.949 µM
[45] = second compound 10 µM, first compound 3 µM
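Also: spheroids exposed to agents for seven days.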
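For viability, T/C in this document: 100% = DMSO vehicle control viability.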

For `O=C(C=Cn1cnc(-c2cc(C(F)(F)F)cc(C(F)(F)F)c2)n1)NNc1cnccn1`, the viability, T/C (compound 0.00949 µM) was 104% and 94.3% and 105%, the viability, T/C (compound 0.03 µM) was 73.3% and 78.8% and 101% and the viability, T/C (compound 0.0949 µM) was 61.6% and 77.7% and 76.8%. The viability, T/C (compound 0.3 µM) was 49.5% and 51.9% and 57.9%, the viability, T/C (compound 0.949 µM) was 40.9% and 40.5% and 50.6% and the viability, T/C (compound 3 µM) was 40.6% and 47.6% and 43%. The IC50 (curve of compound) was 264 nM and 423 nM and 743 nM.
Work on `CC[C@@]1(O)C(=O)OCc2c1cc1n(c2=O)Cc2cc3c(CN(C)C)c(O)ccc3nc2-1` + CC(CO)NC(=O)c1cc(-c2ccc(Cl)cc2)nn(-c2cnn(C)c2)c1=O yielded an IC50 [1] of 36.7 nM, an IC50 [2] of 27.7 nM and an IC50 [3] of 24.5 nM. The IC50 [4] was 22.9 nM, the IC50 [5] was 21 nM and the viability, T/C (second compound 0.1 µM, first compound 0.000316 µM) was 94.8%. It also gave a viability, T/C (second compound 0.1 µM, first compound 0.001 µM) of 97.8%, a viability, T/C (second compound 0.1 µM, first compound 0.00316 µM) of 94.9% and a viability, T/C (second compound 0.1 µM, first compound 0.01 µM) of 79%. It also gave a viability, T/C [6] of 52.2%, a viability, T/C [7] of 38.1% and a viability, T/C (second compound 0.316 µM, first compound 0.000316 µM) of 93.2%. For the same compound, the viability, T/C (second compound 0.316 µM, first compound 0.001 µM) was 94.4%, the viability, T/C (second compound 0.316 µM, first compound 0.00316 µM) was 97.4% and the viability, T/C (second compound 0.316 µM, first compound 0.01 µM) was 79.1%. It also gave a viability, T/C [8] of 46.8%, a viability, T/C [9] of 31.3% and a viability, T/C (second compound 1 µM, first compound 0.000316 µM) of 111%. It also gave a viability, T/C (second compound 1 µM, first compound 0.001 µM) of 96%, a viability, T/C (second compound 1 µM, first compound 0.00316 µM) of 99.1% and a viability, T/C (second compound 1 µM, first compound 0.01 µM) of 80.7%. For the same compound, the viability, T/C [10] was 40.6%, the viability, T/C [11] was 32.3% and the viability, T/C (second compound 3.16 µM, first compound 0.000316 µM) was 85.9%. For the same compound, the viability, T/C (second compound 3.16 µM, first compound 0.001 µM) was 92.3%, the viability, T/C (second compound 3.16 µM, first compound 0.00316 µM) was 95.3% and the viability, T/C (second compound 3.16 µM, first compound 0.01 µM) was 69.8%. It also gave a viability, T/C [12] of 43.6%, a viability, T/C [13] of 31.4% and a viability, T/C (second compound 10 µM, first compound 0.000316 µM) of 90.5%. It also gave a viability, T/C (second compound 10 µM, first compound 0.001 µM) of 95.3%, a viability, T/C (second compound 10 µM, first compound 0.00316 µM) of 83.7% and a viability, T/C (second compound 10 µM, first compound 0.01 µM) of 65.9%. It also gave a viability, T/C [14] of 41.3% and a viability, T/C [15] of 32.3%.
With `CCN(c1cc(-c2ccc(CN3CCOCC3)cc2)cc(C(=O)NCc2c(C)cc(C)[nH]c2=O)c1C)C1CCOCC1` + Cc1ccccc1N=Nc1ccc(NC(=O)c2ccnn2C)c(C)c1 the IC50 [1] was over 3000 nM, the IC50 [2] was over 3000 nM and the IC50 [3] was over 3000 nM. The IC50 [4] was over 3000 nM, the IC50 [5] was over 3000 nM and the viability, T/C [16] was 92.9%. For the same compound, the viability, T/C [17] was 102%, the viability, T/C [18] was 97.9% and the viability, T/C [19] was 103%. The viability, T/C [20] was 97.8%, the viability, T/C [21] was 92.7% and the viability, T/C [22] was 93.2%. The viability, T/C [23] was 95.6%, the viability, T/C [24] was 95.5% and the viability, T/C [25] was 95.3%. For the same compound, the viability, T/C [26] was 93.3%, the viability, T/C [27] was 92.5% and the viability, T/C [28] was 91.6%. For the same compound, the viability, T/C [29] was 95.2%, the viability, T/C [30] was 89% and the viability, T/C [31] was 91.8%. The viability, T/C [32] was 88.3%, the viability, T/C [33] was 93% and the viability, T/C [34] was 102%. It also gave a viability, T/C [35] of 96.1%, a viability, T/C [36] of 92.8% and a viability, T/C [37] of 89.5%. It also gave a viability, T/C [38] of 86.3%, a viability, T/C [39] of 84% and a viability, T/C [40] of 82.1%. For the same compound, the viability, T/C [41] was 80.8%, the viability, T/C [42] was 81.6% and the viability, T/C [43] was 86.1%. The viability, T/C [44] was 78.8% and the viability, T/C [45] was 79.9%.
In the case of `NS(=O)(=O)OCC1CC(n2ccc3c(NC4CCc5ccccc54)ncnc32)CC1O` (centres undefined), the viability, T/C (compound 0.0316 µM) is reported as 101% and 97.7% and 115%, the viability, T/C (compound 0.1 µM) is reported as 98.7% and 110% and 114% and the viability, T/C (compound 0.316 µM) is reported as 89.3% and 95.5% and 96%. For the same compound, the viability, T/C (compound 1 µM) was 89.8% and 104% and 105%, the viability, T/C (compound 3.16 µM) was 91.9% and 83.5% and 78.4% and the viability, T/C (compound 10 µM) was 53.4% and 61.8% and 55.4%. It also gave an IC50 (curve of compound) of over 10000 nM.
In the case of `O=C(C=Cn1cnc(-c2cc(C(F)(F)F)cc(C(F)(F)F)c2)n1)NNc1cnccn1` + CC(CO)NC(=O)c1cc(-c2ccc(Cl)cc2)nn(-c2cnn(C)c2)c1=O, the IC50 [1] is reported as 766 nM, the IC50 [2] is reported as 771 nM and the IC50 [3] is reported as 814 nM. For the same compound, the IC50 [4] was 1230 nM, the IC50 [5] was over 3000 nM and the viability, T/C [16] was 103%. It also gave a viability, T/C [17] of 110%, a viability, T/C [18] of 76.1% and a viability, T/C [19] of 59.7%. It also gave a viability, T/C [20] of 48.9%, a viability, T/C [21] of 45.1% and a viability, T/C [22] of 109%. For the same compound, the viability, T/C [23] was 98%, the viability, T/C [24] was 71.3% and the viability, T/C [25] was 59.7%. The viability, T/C [26] was 51.1%, the viability, T/C [27] was 40% and the viability, T/C [28] was 95.8%. For the same compound, the viability, T/C [29] was 103%, the viability, T/C [30] was 86.1% and the viability, T/C [31] was 61.1%. The viability, T/C [32] was 51.7%, the viability, T/C [33] was 42.8% and the viability, T/C [34] was 114%. For the same compound, the viability, T/C [35] was 105%, the viability, T/C [36] was 96.1% and the viability, T/C [37] was 64.2%. It also gave a viability, T/C [38] of 55.5%, a viability, T/C [39] of 43.6% and a viability, T/C [40] of 111%. For the same compound, the viability, T/C [41] was 101%, the viability, T/C [42] was 86.5% and the viability, T/C [43] was 65.6%. The viability, T/C [44] was 54% and the viability, T/C [45] was 54.4%.
`Nc1ccccc1NC(=O)c1ccc(CNC(=O)OCc2cccnc2)cc1` + Cc1cncc(-c2nc(NCCc3c[nH]c4ccccc34)c3ncn(C(C)C)c3n2)c1 was tested, and the IC50 [1] was 2930 nM, the IC50 [2] was 2890 nM and the IC50 [3] was 3060 nM. It also gave an IC50 [4] of 2710 nM, an IC50 [5] of 388 nM and a viability, T/C [6] of 85.2%. The viability, T/C [7] was 86.2%, the viability, T/C (second compound 0.1 µM, first compound 0.316 µM) was 88.8% and the viability, T/C (second compound 0.1 µM, first compound 1 µM) was 61.4%. The viability, T/C (second compound 0.1 µM, first compound 3.16 µM) was 52%, the viability, T/C (second compound 0.1 µM, first compound 10 µM) was 15.9% and the viability, T/C [8] was 91.1%. It also gave a viability, T/C [9] of 85.9%, a viability, T/C (second compound 0.316 µM, first compound 0.316 µM) of 84.3% and a viability, T/C (second compound 0.316 µM, first compound 1 µM) of 57.2%. It also gave a viability, T/C (second compound 0.316 µM, first compound 3.16 µM) of 56.6%, a viability, T/C (second compound 0.316 µM, first compound 10 µM) of 13.2% and a viability, T/C [10] of 88.3%. It also gave a viability, T/C [11] of 86.7%, a viability, T/C (second compound 1 µM, first compound 0.316 µM) of 69.3% and a viability, T/C (second compound 1 µM, first compound 1 µM) of 65.7%. It also gave a viability, T/C (second compound 1 µM, first compound 3.16 µM) of 55.6%, a viability, T/C (second compound 1 µM, first compound 10 µM) of 13.3% and a viability, T/C [12] of 93%. It also gave a viability, T/C [13] of 113%, a viability, T/C (second compound 3.16 µM, first compound 0.316 µM) of 88.4% and a viability, T/C (second compound 3.16 µM, first compound 1 µM) of 57.7%. It also gave a viability, T/C (second compound 3.16 µM, first compound 3.16 µM) of 55.4%, a viability, T/C (second compound 3.16 µM, first compound 10 µM) of 8.91% and a viability, T/C [14] of 66.7%. It also gave a viability, T/C [15] of 46.9%, a viability, T/C (second compound 10 µM, first compound 0.316 µM) of 45.3% and a viability, T/C (second compound 10 µM, first compound 1 µM) of 44.3%. It also gave a viability, T/C (second compound 10 µM, first compound 3.16 µM) of 36.6% and a viability, T/C (second compound 10 µM, first compound 10 µM) of 4.53%.
